Results as given in PubChem BioAssay (NCI).
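Grown in 96-well plates, cells were treated for 48 hours with each compound at five concentrations. Insufficient inhibition: endpoint recorded as highest concentration tested. GI50 is the concentration that inhibits growth by half. The concentration for full growth arrest is given as TGI.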

Legend:
Assay in all cases: NCI tumour cell line growth inhibition, 48 h
M14 melanoma = test system: M14 melanoma
CCRF-CEM leukemia = test system: CCRF-CEM leukemia
XF 498 CNS = test system: XF 498 CNS
P388 leukemia = test system: P388 leukemia
SNB-78 CNS = test system: SNB-78 CNS
HOP-18 NSCLC = test system: HOP-18 NSCLC
DMS 273 small cell lung = test system: DMS 273 small cell lung
DMS 114 small cell lung = test system: DMS 114 small cell lung
M19-MEL melanoma = test system: M19-MEL melanoma
SN12K1 renal = test system: SN12K1 renal
DLD-1 colon = test system: DLD-1 colon
P388/ADR leukemia = test system: P388/ADR leukemia
KM20L2 colon = test system: KM20L2 colon
LXFL 529 NSCLC = test system: LXFL 529 NSCLC
RXF-631 renal = test system: RXF-631 renal

COc1ccc2c(c1)C(=O)c1ccccc1C2
TGI (M14 melanoma): > 100 µM | TGI (CCRF-CEM leukemia): > 100 µM

CCn1c(=O)c2c3cc(O)ccc3oc2c2ccc(O)cc21
TGI (M14 melanoma): > 100 µM | TGI (CCRF-CEM leukemia): > 100 µM

NCCCC(N)C(=O)O (configuration not stated)
TGI (M14 melanoma): > 100 µM | TGI (CCRF-CEM leukemia): > 100 µM

CC(=O)OCC1OC(n2c(=S)[nH]c(-c3ccccc3)c(C#N)c2=O)C(OC(C)=O)C(OC(C)=O)C1OC(C)=O (configuration not stated)
TGI (M14 melanoma): > 100 µM | TGI (CCRF-CEM leukemia): > 100 µM

COc1cc([C@@H]2c3cc4c(cc3C[C@H]3COC(=O)[C@@H]32)OCO4)cc(OC)c1OC
TGI (XF 498 CNS): 1.88 µM | TGI (P388 leukemia): > 15.8 µM | TGI (SNB-78 CNS): > 50 µM | TGI (HOP-18 NSCLC): > 50 µM | TGI (DMS 273 small cell lung): > 4.13 µM | TGI (DMS 114 small cell lung): 0.0167 µM | TGI (M19-MEL melanoma): > 50 µM | TGI (SN12K1 renal): > 3.86 µM | TGI (DLD-1 colon): > 50 µM | GI50 (CCRF-CEM leukemia): 0.00386 µM | TGI (CCRF-CEM leukemia): 21.1 µM | TGI (P388/ADR leukemia): 0.502 µM

O=[N+]([O-])C(=C(Sc1ccccc1)Sc1ccccc1)C(Cl)=C(Cl)Cl
TGI (M14 melanoma): 1.17 µM | TGI (CCRF-CEM leukemia): 0.0419 µM

N#CSCc1cccc(Nc2cc(=O)[nH]c(=O)[nH]2)c1
TGI (M14 melanoma): > 100 µM

N#CC(C#N)=C1CCCS(=O)(=O)c2ccccc21
TGI (M14 melanoma): > 100 µM | TGI (CCRF-CEM leukemia): > 100 µM

O=C(O)CNC(=O)c1ccc([As](=O)(O)O)cc1
TGI (M14 melanoma): > 100 µM | TGI (CCRF-CEM leukemia): > 100 µM

CCOC(=O)C1CC(O)C(=O)N1C (configuration not stated)
TGI (M14 melanoma): > 100 µM | TGI (CCRF-CEM leukemia): > 100 µM

Brc1ccc2c3c1[C@@H]1O[C@@H]1c1cccc(c1-3)[C@@H]1O[C@H]21
TGI (M14 melanoma): 35.5 µM | TGI (CCRF-CEM leukemia): > 100 µM

Cc1ccc(C2=Nc3c(c(C)nn3-c3ccccc3)N=C(C(=O)O)C2)cc1
TGI (M14 melanoma): > 10 µM | TGI (CCRF-CEM leukemia): > 10 µM

CC1=CC(=O)N(n2c(C)n[nH]c2=O)C1=O
TGI (M14 melanoma): > 100 µM | TGI (CCRF-CEM leukemia): > 100 µM

O=c1c2cc(I)ccc2[nH]c(=S)n1Cc1ccccc1
TGI (M14 melanoma): > 100 µM | TGI (CCRF-CEM leukemia): 23.1 µM

CC(=O)Nc1ccc(Cl)c(Cl)c1
TGI (M14 melanoma): > 100 µM | TGI (KM20L2 colon): > 100 µM | TGI (LXFL 529 NSCLC): > 100 µM | TGI (SNB-78 CNS): > 100 µM | TGI (DMS 273 small cell lung): > 100 µM | TGI (DMS 114 small cell lung): > 100 µM | TGI (M19-MEL melanoma): > 100 µM | TGI (DLD-1 colon): > 100 µM | TGI (CCRF-CEM leukemia): > 100 µM

O=C1/C(=C/c2ccc([N+](=O)[O-])cc2)CNC/C1=C\c1ccc([N+](=O)[O-])cc1
TGI (M14 melanoma): 28.7 µM | TGI (CCRF-CEM leukemia): 2.97 µM

Cc1cc(O)cc(O)c1N=Nc1ccc([N+](=O)[O-])cc1
TGI (M14 melanoma): > 100 µM | TGI (CCRF-CEM leukemia): > 100 µM

Cc1cccc(C[C@@]2(SCc3ccccc3)C(C)(C)[C@@H]3CC[C@@]2(C)C3)n1
TGI (M14 melanoma): 46.2 µM | TGI (CCRF-CEM leukemia): 27.6 µM

CC1=C2c3ccccc3N(C(=O)/C=C/C(=O)O)[C@H]2[C@H]2C(=O)OC(=O)[C@H]2C1
TGI (M14 melanoma): > 10 µM | TGI (CCRF-CEM leukemia): > 10 µM

CC(C)=CC1C(C(=O)O)C1(C)C (configuration not stated)
TGI (XF 498 CNS): > 75 µM | TGI (KM20L2 colon): > 750 µM | TGI (P388 leukemia): > 750 µM | TGI (HOP-18 NSCLC): > 750 µM | TGI (DMS 273 small cell lung): > 750 µM | TGI (DMS 114 small cell lung): > 750 µM | TGI (M19-MEL melanoma): > 750 µM | TGI (SN12K1 renal): > 750 µM | TGI (DLD-1 colon): > 750 µM | TGI (CCRF-CEM leukemia): > 750 µM | TGI (P388/ADR leukemia): > 750 µM

O=C1C(Cl)N(c2ccccc2)C1c1c[nH]c2ccccc12 (configuration not stated)
TGI (M14 melanoma): > 100 µM | TGI (XF 498 CNS): > 100 µM | TGI (KM20L2 colon): > 100 µM | TGI (LXFL 529 NSCLC): > 100 µM | TGI (DMS 114 small cell lung): > 100 µM | TGI (M19-MEL melanoma): > 100 µM | TGI (CCRF-CEM leukemia): > 100 µM

CC(C)/C(Cl)=N\OC(=O)NNc1ccccc1
TGI (M14 melanoma): > 56.3 µM | TGI (CCRF-CEM leukemia): > 46.7 µM

Cc1ccc(C(=O)Nc2ccc(CP(=O)(O)O)cc2)cc1NC(=O)c1cccc(NC(=O)Nc2cccc(C(=O)Nc3cc(C(=O)Nc4ccc(CP(=O)(O)O)cc4)ccc3C)c2)c1
TGI (M14 melanoma): > 100 µM | TGI (CCRF-CEM leukemia): > 100 µM

O=C1C(Br)=Cc2c(Cl)sc(Cl)c21
TGI (M14 melanoma): 26.7 µM | TGI (CCRF-CEM leukemia): > 100 µM

Cc1cc2cccc(Cl)c2nc1C(=O)c1ccccc1
TGI (M14 melanoma): > 100 µM | TGI (XF 498 CNS): > 100 µM | TGI (KM20L2 colon): > 100 µM | TGI (RXF-631 renal): > 100 µM | TGI (LXFL 529 NSCLC): > 100 µM | TGI (SNB-78 CNS): > 100 µM | TGI (HOP-18 NSCLC): > 100 µM | TGI (DMS 273 small cell lung): > 100 µM | TGI (DMS 114 small cell lung): > 100 µM | TGI (M19-MEL melanoma): > 100 µM | TGI (DLD-1 colon): > 100 µM

Cc1oc2nc(N(C)C)n3nnnc3c2c1C
TGI (M14 melanoma): > 100 µM | TGI (CCRF-CEM leukemia): > 100 µM

COC(c1ccc(C(C)(C)C)cc1)(c1ccc(C(C)(C)C)cc1)c1cc(C(O)(c2cc(C(OC)(c3ccc(C(C)(C)C)cc3)c3ccc(C(C)(C)C)cc3)c(C)cc2C)c2cc(C(OC)(c3ccc(C(C)(C)C)cc3)c3ccc(C(C)(C)C)cc3)c(C)cc2C)c(C)cc1C
TGI (M14 melanoma): > 100 µM | TGI (CCRF-CEM leukemia): > 100 µM

Cc1nc2cc(C(F)(F)F)ccc2[nH]c1=O
TGI (M14 melanoma): > 100 µM | TGI (CCRF-CEM leukemia): > 100 µM

CC(C)c1c(P(=O)(c2ccccc2)c2ccccc2)n(C)c2ccccc12
TGI (M14 melanoma): > 100 µM | TGI (CCRF-CEM leukemia): > 100 µM

CN(O)C(=O)Cc1ccc(OCc2cccc(Cl)c2)cc1
TGI (M14 melanoma): > 100 µM | TGI (CCRF-CEM leukemia): > 100 µM

COC(=O)C1CC(C=[N+](C)C)=C(SC)N1 (configuration not stated)
TGI (M14 melanoma): > 100 µM

COc1cc2c(cc1OC)C(=O)/C(=C/c1cc(C)c(O)c(C)c1)C2
TGI (M14 melanoma): > 100 µM | TGI (CCRF-CEM leukemia): > 100 µM
